Data published in patent US20070088033A1, “Diaryl Substituted Pyridinones” (priority 2002, published 2007).

melting point	SMILES
124.6 to 125 °C	O=c1cc(OCc2ccccc2Cl)ccn1Cc1ccccc1 [Example 42, 1-Benzyl-4-[(2-chlorobenzyl)oxy]pyridin-2(1H)-one]
143.3 to 145.5 °C	O=c1c(Br)c(OCc2ccccc2Cl)ccn1Cc1ccccc1 [Example 43, 1-Benzyl-3-bromo-4-[(2-chlorobenzyl)oxy]pyridin-2(1H)-one]
149 to 149.7 °C	Cc1ccc(COc2ccn(Cc3ccccc3)c(=O)c2Br)cc1 [Example 44, 1-Benzyl-3-bromo-4-[(4-methylbenzyl)oxy]pyridin-2(1H)-one]
95.5 to 95.7 °C	O=c1cc(OCc2cccc(Cl)c2)ccn1Cc1ccccc1 [Example 45, 1-Benzyl-4-[(3-chlorobenzyl)oxy]pyridin-2(1H)-one]
180.6 to 182.1 °C	O=c1c(Br)c(SCc2ccccc2)ccn1Cc1ccccc1 [Example 46]
133.2 to 133.5 °C	O=c1c(Br)c(OCc2ccccc2C(F)(F)F)ccn1Cc1ccccc1 [Example 47, 1-Benzyl-3-bromo-4-{[2-(trifluoromethyl)benzyl]oxy}pyridin-2(1H)-one]
156.3 to 157.9 °C	O=c1c(Br)c(OCc2c(Cl)cccc2Cl)ccn1Cc1ccccc1 [Example 461, 1-Benzyl-3-bromo-4-[2,6-(dichlorobenzyl)oxy]pyridin-2(1H)-one]
